Assay results from ChEMBL document CHEMBL1201862, “PubChem BioAssay data set” (2004).
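In this assay, cells in 96-well plates receive the compound at five concentrations for 48 hours. Endpoints are linearly interpolated between the surrounding concentrations. GI50 = concentration required for 50% inhibition of growth.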 Activity calls are given as the source filed them. Rule as the data show it: active = GI50 up to about 1.1 µM and inactive = higher.

Key:
Assay in all cases: inhibition of tumour cell growth, NCI panel, 48 h
[1] = test system: SK-MEL-5
[2] = test system: MCF7
[3] = test system: OVCAR-3
[4] = test system: HOP-92
[5] = test system: SW-620
[6] = test system: RPMI-8226
[7] = test system: SF-295
[8] = test system: SK-MEL-2
[9] = test system: IGROV-1
[10] = test system: SN12C
[11] = test system: CCRF-CEM
[12] = test system: SNB-75
[13] = test system: OVCAR-4
[14] = test system: NCI/ADR-RES
[15] = test system: RXF 393
[16] = test system: CAKI-1
[17] = test system: SF-268
[18] = test system: UACC-257
[19] = test system: SK-MEL-28
[20] = test system: MDA-MB-435

SMILES | GI50 [1] | GI50 [2] | GI50 [3] | GI50 [4] | GI50 [5] | GI50 [6] | GI50 [7] | GI50 [8] | GI50 [9] | GI50 [10] | GI50 [11] | GI50 [12] | GI50 [13] | GI50 [14] | GI50 [15] | GI50 [16] | GI50 [17] | GI50 [18] | GI50 [19] | GI50 [20]
CN1CCN(C2=CC(=O)c3c(O)ccc(O)c3C2=O)CC1 | 0.179 µM (active) | 0.319 µM (active) | 0.23 µM (active) | 1.86 µM (inactive) | 0.618 µM (active) | 1.37 µM (inactive) | 1.69 µM (inactive) | 2.45 µM (inactive) | 1.64 µM (inactive) | 1.64 µM (inactive) | 0.501 µM (active) | 1.61 µM (inactive) | 2.02 µM (inactive) | 1.04 µM (active) | 1.57 µM (inactive) | 1.6 µM (inactive) | 1.57 µM (inactive) | 0.244 µM (active) | 1.64 µM (inactive) | 0.188 µM (active)
N/C(=N\O)N/N=C/c1cc(Br)cc(Br)c1O | 6.89 µM (inactive) | 6.21 µM (inactive) | 2.37 µM (inactive) | 2.86 µM (inactive) | 8.95 µM (inactive) | 2.61 µM (inactive) | 4.98 µM (inactive) | 8.04 µM (inactive) | 0.507 µM (active) | 1.86 µM (inactive) | 0.491 µM (active) | 2.86 µM (inactive) | 4.23 µM (inactive) | 1.08 µM (active) | 4.32 µM (inactive) | 0.461 µM (active) | 1.75 µM (inactive) | 14 µM (inactive) | 8.73 µM (inactive) | 9.48 µM (inactive)
Cc1cc(NS(=O)(=O)c2ccc(NC(NC(=O)C(C(F)(F)F)C(F)(F)F)(C(F)(F)F)C(F)(F)F)cc2)no1 | > 100 µM (inactive) | > 100 µM (inactive) | > 100 µM (inactive) | > 100 µM (inactive) | > 100 µM (inactive) | > 100 µM (inactive) | > 100 µM (inactive) | > 100 µM (inactive) | > 100 µM (inactive) | > 100 µM (inactive) | > 100 µM (inactive) | > 100 µM (inactive) | > 100 µM (inactive) | > 100 µM (inactive) | > 100 µM (inactive) | > 100 µM (inactive) | > 100 µM (inactive) | > 100 µM (inactive) | > 100 µM (inactive) | > 100 µM (inactive)
COc1cc2c3c(c1OC)-c1cc4c(cc1CC3(C#N)N(C(=O)c1ccccc1)CC2)OCO4 (stereo not given) | 29.2 µM (inactive) | 91.6 µM (inactive) | 40.5 µM (inactive) | 8.39 µM (inactive) | 87.9 µM (inactive) | > 87.5 µM (inactive) | 33.3 µM (inactive) | 46.6 µM (inactive) | 33 µM (inactive) | 50.7 µM (inactive) | > 100 µM (inactive) | 9.12 µM (inactive) | 15.3 µM (inactive) | > 60 µM (inactive) | 8.73 µM (inactive) | 37.9 µM (inactive) | 31.6 µM (inactive) | 60.4 µM (inactive) | 59.7 µM (inactive) | > 88.5 µM (inactive)
O=C(O)c1cc2ccccc2c2c1C(=O)c1ccccc1-2 | 79.3 µM (inactive) | 98.9 µM (inactive) | 50 µM (inactive) | 50.2 µM (inactive) | > 100 µM (inactive) | 65.8 µM (inactive) | 56 µM (inactive) | > 100 µM (inactive) | 58.7 µM (inactive) | 75 µM (inactive) | > 100 µM (inactive) | > 100 µM (inactive) | > 100 µM (inactive) | > 100 µM (inactive) | > 100 µM (inactive) | > 100 µM (inactive) | > 100 µM (inactive) | > 100 µM (inactive) | 58.3 µM (inactive) | > 100 µM (inactive)
O=C(N/N=C\c1cccs1)c1ccncc1 | > 100 µM (inactive) | > 100 µM (inactive) | > 100 µM (inactive) | > 100 µM (inactive) | > 100 µM (inactive) | > 100 µM (inactive) | > 100 µM (inactive) | > 100 µM (inactive) | > 100 µM (inactive) | > 100 µM (inactive) | > 100 µM (inactive) | > 100 µM (inactive) | > 100 µM (inactive) | > 100 µM (inactive) | > 100 µM (inactive) | > 100 µM (inactive) | > 100 µM (inactive) | > 100 µM (inactive) | > 100 µM (inactive) | > 100 µM (inactive)
Cc1ccsc1/C=N/Nc1cnccn1 | > 100 µM (inactive) | 3.53 µM (inactive) | > 100 µM (inactive) | > 100 µM (inactive) | > 100 µM (inactive) | > 100 µM (inactive) | > 100 µM (inactive) | > 100 µM (inactive) | 40.1 µM (inactive) | > 100 µM (inactive) | > 100 µM (inactive) | > 100 µM (inactive) | > 100 µM (inactive) | > 100 µM (inactive) | > 100 µM (inactive) | > 100 µM (inactive) | > 100 µM (inactive) | > 100 µM (inactive) | > 100 µM (inactive) | > 100 µM (inactive)
Cn1c(-c2cccs2)cc(-c2cccs2)c1-c1cccs1 | 14.5 µM (inactive) | 2.82 µM (inactive) | 43.8 µM (inactive) | > 100 µM (inactive) | > 100 µM (inactive) | 20.4 µM (inactive) | > 81.3 µM (inactive) | 44 µM (inactive) | 51.8 µM (inactive) | > 100 µM (inactive) | 67 µM (inactive) | 53.3 µM (inactive) | 39.1 µM (inactive) | > 100 µM (inactive) | 54.2 µM (inactive) | > 100 µM (inactive) | > 81.8 µM (inactive) | 16.5 µM (inactive) | > 100 µM (inactive) | 53.2 µM (inactive)
CCCCCCCCCCCCCCCCNc1ccn(C2CC(O)C(COC(c3ccccc3)(c3ccccc3)c3ccc(OC)cc3)O2)c(=O)n1 (stereo not given) | > 100 µM (inactive) | > 100 µM (inactive) | > 100 µM (inactive) | > 100 µM (inactive) | > 100 µM (inactive) | > 100 µM (inactive) | > 100 µM (inactive) | > 100 µM (inactive) | > 100 µM (inactive) | > 100 µM (inactive) | 67.8 µM (inactive) | > 100 µM (inactive) | > 100 µM (inactive) | > 100 µM (inactive) | > 100 µM (inactive) | > 100 µM (inactive) | > 100 µM (inactive) | > 10 µM (inactive) | > 100 µM (inactive) | > 100 µM (inactive)
CC(=O)OCC1OC(n2c(N)c(C#N)c(-c3ccc(C)cc3)c(C#N)c2=S)C(OC(C)=O)C(OC(C)=O)C1OC(C)=O (stereo not given) | 11.1 µM (inactive) | 20.1 µM (inactive) | 31.3 µM (inactive) | 15.2 µM (inactive) | 36 µM (inactive) | 29.2 µM (inactive) | 25.4 µM (inactive) | 15.2 µM (inactive) | 20.3 µM (inactive) | 15.6 µM (inactive) | 35.2 µM (inactive) | 16 µM (inactive) | 41.9 µM (inactive) | 30 µM (inactive) | 18.7 µM (inactive) | 63.7 µM (inactive) | 15.2 µM (inactive) | 19.2 µM (inactive) | 38.7 µM (inactive) | 21.2 µM (inactive)
C#CC1NC(=O)C1N(CC)CC (stereo not given) | > 100 µM (inactive) | > 100 µM (inactive) | > 100 µM (inactive) | > 100 µM (inactive) | > 100 µM (inactive) | > 100 µM (inactive) | > 100 µM (inactive) | > 100 µM (inactive) | > 100 µM (inactive) | > 100 µM (inactive) | > 100 µM (inactive) | 14.6 µM (inactive) | > 100 µM (inactive) | > 100 µM (inactive) | > 100 µM (inactive) | 86.5 µM (inactive) | > 100 µM (inactive) | > 100 µM (inactive) | > 100 µM (inactive) | > 100 µM (inactive)
CCC(c1nc2ccccc2c(=O)n1NC(=O)C(C)(C)C)C1(O)CCCCC1 (stereo not given) | > 100 µM (inactive) | > 100 µM (inactive) | > 100 µM (inactive) | > 100 µM (inactive) | > 100 µM (inactive) | > 100 µM (inactive) | > 100 µM (inactive) | > 100 µM (inactive) | > 100 µM (inactive) | > 100 µM (inactive) | 99.5 µM (inactive) | > 100 µM (inactive) | > 100 µM (inactive) | > 100 µM (inactive) | > 100 µM (inactive) | > 100 µM (inactive) | > 100 µM (inactive) | > 100 µM (inactive) | > 100 µM (inactive) | > 100 µM (inactive)
C=C[C@]1(O[Si](C)(C)C)C[C@@]2(C(=O)OCC)C(O)C(=O)N3CCc4cc(OC)c(OC)cc4[C@]312 (stereo not given in full) | 44.7 µM (inactive) | 90.8 µM (inactive) | > 100 µM (inactive) | 24.9 µM (inactive) | > 100 µM (inactive) | 61.1 µM (inactive) | > 100 µM (inactive) | > 100 µM (inactive) | > 100 µM (inactive) | > 100 µM (inactive) | > 100 µM (inactive) | > 100 µM (inactive) | > 100 µM (inactive) | > 100 µM (inactive) | > 100 µM (inactive) | > 100 µM (inactive) | > 100 µM (inactive) | > 100 µM (inactive) | > 100 µM (inactive) | > 100 µM (inactive)
CCc1nc(N)nc(N)c1-c1ccc(N2CCNCC2)c([N+](=O)[O-])c1 | 8.59 µM (inactive) | 12.4 µM (inactive) | 35.3 µM (inactive) | 27.4 µM (inactive) | 5.4 µM (inactive) | 29.5 µM (inactive) | 7.96 µM (inactive) | 36.9 µM (inactive) | 7.55 µM (inactive) | 22 µM (inactive) | 4.74 µM (inactive) | 36.6 µM (inactive) | 32.7 µM (inactive) | > 100 µM (inactive) | 24.5 µM (inactive) | 64.3 µM (inactive) | 9.29 µM (inactive) | 13.9 µM (inactive) | 40.5 µM (inactive) | 4.27 µM (inactive)
